Measurements reported in ChEMBL document CHEMBL4334516, “Kinase Chemodiversity from the Arctic: The Breitfussins” (J Med Chem, 2019).

How the values were obtained:
[1] = biological target: BMP-2-inducible protein kinase (Homo sapiens, UniProt Q9NSY1); test: Binding affinity to wild-type human partial length BIKE (S34 to N329 residues) expressed in bacterial expression system by active-site directed competition binding assay based Kinomescan method
[2] = Toxicity in zebrafish embryos assessed as induction of necrosis by measuring unaffected embryos level at 0.1 uM after 72 hrs (reference value: 100%); design: species or system Danio rerio; conditions: in vivo
[3] = biological target: Dual specificity tyrosine-phosphorylation-regulated kinase 1A (Homo sapiens, UniProt Q13627); test: Binding affinity to wild-type human partial length DYRK1A (H129 to S509 residues) expressed in mammalian expression system assessed as residual binding level at 10 uM by active-site directed competition binding assay based Kinomescan method relative to control
[4] = Toxicity in zebrafish embryos assessed as induction of scoliosis by measuring unaffected embryos level at 14 uM after 72 hrs (reference value: 100%); design: species or system Danio rerio; conditions: in vivo
[5] = Toxicity in zebrafish embryos assessed as induction of general edema by measuring unaffected embryos level at 1.4 uM after 72 hrs (reference value: 100%); design: species or system Danio rerio; conditions: in vivo
[6] = biological target: Aurora kinase A (Homo sapiens) (UniProt O14965); test: Binding affinity to wild-type human partial length AURKA (E122 to K401 residues) expressed in mammalian expression system assessed as residual binding level at 10 uM by active-site directed competition binding assay based Kinomescan method relative to control
Aurora kinase A (Homo sapiens), sequence (O14965 whole entry, the tested form may be a part): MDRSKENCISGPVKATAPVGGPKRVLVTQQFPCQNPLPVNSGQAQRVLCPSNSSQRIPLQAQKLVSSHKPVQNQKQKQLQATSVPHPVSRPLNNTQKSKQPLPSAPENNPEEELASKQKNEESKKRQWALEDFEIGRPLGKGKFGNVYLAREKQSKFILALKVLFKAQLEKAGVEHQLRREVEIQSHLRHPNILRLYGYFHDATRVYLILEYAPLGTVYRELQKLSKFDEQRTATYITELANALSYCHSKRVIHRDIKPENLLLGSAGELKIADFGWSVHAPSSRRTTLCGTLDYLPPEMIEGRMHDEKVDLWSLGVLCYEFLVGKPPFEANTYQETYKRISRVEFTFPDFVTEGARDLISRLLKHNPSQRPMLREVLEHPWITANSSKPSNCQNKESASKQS

Aurora kinase B = Aurora kinase B (Homo sapiens, UniProt Q96GD4); test: Inhibition of Aurora B (unknown origin) assessed as residual enzyme activity at 50 uM by [33P]-ATP filter binding kinase assay relative to control
Aurora kinase B, sequence (Q96GD4 whole entry): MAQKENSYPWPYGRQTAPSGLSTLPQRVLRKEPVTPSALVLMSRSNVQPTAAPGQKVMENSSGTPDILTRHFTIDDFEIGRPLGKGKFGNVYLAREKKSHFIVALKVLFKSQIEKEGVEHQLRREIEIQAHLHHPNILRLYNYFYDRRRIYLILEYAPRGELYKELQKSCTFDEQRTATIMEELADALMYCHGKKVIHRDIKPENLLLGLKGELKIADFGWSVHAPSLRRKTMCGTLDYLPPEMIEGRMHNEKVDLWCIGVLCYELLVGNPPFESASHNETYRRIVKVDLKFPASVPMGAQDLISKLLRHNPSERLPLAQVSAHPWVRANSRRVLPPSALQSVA

[7] = Toxicity in zebrafish embryos assessed as induction of scoliosis by measuring unaffected embryos level at 1.4 uM after 72 hrs (reference value: 100%); design: species or system Danio rerio; conditions: in vivo
[8] = Toxicity in zebrafish embryos assessed as induction of necrosis by measuring unaffected embryos level at 14 uM after 72 hrs (reference value: 100%); design: species or system Danio rerio; conditions: in vivo
[9] = biological target: T1, Mitogen-activated protein kinase kinase kinase 7 (Homo sapiens) (UniProt O43318); test: Inhibition of TAK1 (unknown origin) assessed as residual enzyme activity at 1 uM by [33P]-ATP filter binding kinase assay relative to control
T1 sequence (whole entry): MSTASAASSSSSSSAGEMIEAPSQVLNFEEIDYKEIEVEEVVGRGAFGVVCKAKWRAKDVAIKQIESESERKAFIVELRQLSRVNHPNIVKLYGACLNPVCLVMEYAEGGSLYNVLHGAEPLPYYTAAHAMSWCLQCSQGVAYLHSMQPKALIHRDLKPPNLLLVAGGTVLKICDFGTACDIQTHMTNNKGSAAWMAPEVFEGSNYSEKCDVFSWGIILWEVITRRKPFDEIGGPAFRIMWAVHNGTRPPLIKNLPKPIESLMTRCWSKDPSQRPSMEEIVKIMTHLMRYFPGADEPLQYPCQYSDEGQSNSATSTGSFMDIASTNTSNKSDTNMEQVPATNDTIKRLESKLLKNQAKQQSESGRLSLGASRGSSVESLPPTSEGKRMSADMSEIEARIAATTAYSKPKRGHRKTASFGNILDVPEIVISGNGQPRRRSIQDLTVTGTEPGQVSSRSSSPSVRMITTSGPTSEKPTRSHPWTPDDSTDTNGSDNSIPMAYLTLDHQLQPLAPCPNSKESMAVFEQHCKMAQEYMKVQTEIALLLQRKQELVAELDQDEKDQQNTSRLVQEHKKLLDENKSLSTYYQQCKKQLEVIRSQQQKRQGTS

[10] = Toxicity in zebrafish embryos assessed as induction of tail degeneration by measuring unaffected embryos level at 14 uM after 72 hrs (reference value: 100%); assay type: tissue-based, Danio rerio; conditions: in vivo
[11] = biological target: Serine/threonine-protein kinase pim-1 (Homo sapiens, UniProt P11309); test: Inhibition of PIM1 (unknown origin) assessed as residual enzyme activity at 1 uM by [33P]-ATP filter binding kinase assay relative to control
Serine/threonine-protein kinase pim-1, sequence (P11309 whole entry, looked up): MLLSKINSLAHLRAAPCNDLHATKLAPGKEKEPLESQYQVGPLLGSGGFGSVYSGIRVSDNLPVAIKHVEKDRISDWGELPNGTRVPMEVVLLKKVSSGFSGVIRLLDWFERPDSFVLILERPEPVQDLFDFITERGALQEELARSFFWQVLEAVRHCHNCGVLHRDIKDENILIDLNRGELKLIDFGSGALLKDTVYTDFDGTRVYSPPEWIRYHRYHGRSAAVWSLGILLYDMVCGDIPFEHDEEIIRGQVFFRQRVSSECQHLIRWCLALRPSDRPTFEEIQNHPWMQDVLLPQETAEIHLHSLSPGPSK

[12] = Intrinsic clearance in human liver microsomes at 3 uM measured up to 50 mins by LC-MS analysis; assay type: ADME, Microsome; conditions: read-out: CLH
[13] = biological target: Mitogen-activated protein kinase 15 (Homo sapiens) (UniProt Q8TD08); test: Binding affinity to wild-type human partial length ERK8 (M1 to P437 residues) expressed in bacterial expression system assessed as residual binding level at 10 uM by active-site directed competition binding assay based Kinomescan method relative to control
Mitogen-activated protein kinase 15 (Homo sapiens), sequence (Q8TD08 whole entry, the tested form may be a part): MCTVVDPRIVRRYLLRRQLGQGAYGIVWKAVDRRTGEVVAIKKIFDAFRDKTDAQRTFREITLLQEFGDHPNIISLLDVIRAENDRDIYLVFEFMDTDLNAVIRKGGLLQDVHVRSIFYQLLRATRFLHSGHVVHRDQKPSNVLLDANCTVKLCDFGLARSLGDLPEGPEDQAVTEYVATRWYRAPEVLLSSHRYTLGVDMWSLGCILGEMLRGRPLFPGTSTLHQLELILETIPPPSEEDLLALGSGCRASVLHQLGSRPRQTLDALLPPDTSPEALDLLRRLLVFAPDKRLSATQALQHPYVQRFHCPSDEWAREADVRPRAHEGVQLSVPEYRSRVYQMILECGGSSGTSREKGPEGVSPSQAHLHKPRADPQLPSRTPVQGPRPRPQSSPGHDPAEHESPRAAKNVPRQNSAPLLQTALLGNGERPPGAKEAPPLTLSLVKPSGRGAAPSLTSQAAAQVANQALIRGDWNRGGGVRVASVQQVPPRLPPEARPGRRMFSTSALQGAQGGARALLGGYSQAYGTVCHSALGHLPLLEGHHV

HT-29 = test: Cytotoxicity in human HT-29 cells assessed as reduction in cell viability by MTS assay; assay type: functional, cell-based; conditions: TDE = time-dependent effect
A673 = test: Cytotoxicity in human A673 cells assessed as reduction in cell viability incubated for 72 hrs by SRB assay; conditions: A673, 72 h
[14] = biological target: T2, Mitogen-activated protein kinase kinase kinase kinase 2 (Homo sapiens) (UniProt Q12851); test: Inhibition of GCK (unknown origin) assessed as residual enzyme activity at 1 uM by [33P]-ATP filter binding kinase assay relative to control
T2 sequence (whole entry): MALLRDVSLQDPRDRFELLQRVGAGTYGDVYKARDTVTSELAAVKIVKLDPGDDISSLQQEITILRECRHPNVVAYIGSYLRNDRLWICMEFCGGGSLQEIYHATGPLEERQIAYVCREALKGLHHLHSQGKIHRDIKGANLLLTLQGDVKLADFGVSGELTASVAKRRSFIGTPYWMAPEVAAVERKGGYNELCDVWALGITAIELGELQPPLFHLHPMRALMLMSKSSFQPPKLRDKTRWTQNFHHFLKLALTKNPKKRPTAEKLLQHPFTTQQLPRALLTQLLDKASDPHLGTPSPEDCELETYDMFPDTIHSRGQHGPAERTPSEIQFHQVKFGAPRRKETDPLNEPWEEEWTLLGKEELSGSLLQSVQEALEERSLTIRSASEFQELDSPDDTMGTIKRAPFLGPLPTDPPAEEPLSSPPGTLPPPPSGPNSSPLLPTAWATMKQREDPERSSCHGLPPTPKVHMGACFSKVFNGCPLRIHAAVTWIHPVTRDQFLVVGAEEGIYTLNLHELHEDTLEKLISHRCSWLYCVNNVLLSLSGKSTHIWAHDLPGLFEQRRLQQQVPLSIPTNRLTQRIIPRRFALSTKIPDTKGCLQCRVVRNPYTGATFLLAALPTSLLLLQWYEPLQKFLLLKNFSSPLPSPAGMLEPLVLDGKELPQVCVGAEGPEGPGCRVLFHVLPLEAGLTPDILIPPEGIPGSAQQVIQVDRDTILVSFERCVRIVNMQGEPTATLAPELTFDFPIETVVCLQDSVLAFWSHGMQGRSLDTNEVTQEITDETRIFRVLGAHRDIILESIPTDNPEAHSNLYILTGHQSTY

[15] = biological target: Mitogen-activated protein kinase kinase kinase 9 (Homo sapiens, UniProt P80192); test: Inhibition of MLK1 (unknown origin) assessed as residual enzyme activity at 5 uM by [33P]-ATP filter binding kinase assay relative to control
Mitogen-activated protein kinase kinase kinase 9, sequence (P80192 whole entry, looked up): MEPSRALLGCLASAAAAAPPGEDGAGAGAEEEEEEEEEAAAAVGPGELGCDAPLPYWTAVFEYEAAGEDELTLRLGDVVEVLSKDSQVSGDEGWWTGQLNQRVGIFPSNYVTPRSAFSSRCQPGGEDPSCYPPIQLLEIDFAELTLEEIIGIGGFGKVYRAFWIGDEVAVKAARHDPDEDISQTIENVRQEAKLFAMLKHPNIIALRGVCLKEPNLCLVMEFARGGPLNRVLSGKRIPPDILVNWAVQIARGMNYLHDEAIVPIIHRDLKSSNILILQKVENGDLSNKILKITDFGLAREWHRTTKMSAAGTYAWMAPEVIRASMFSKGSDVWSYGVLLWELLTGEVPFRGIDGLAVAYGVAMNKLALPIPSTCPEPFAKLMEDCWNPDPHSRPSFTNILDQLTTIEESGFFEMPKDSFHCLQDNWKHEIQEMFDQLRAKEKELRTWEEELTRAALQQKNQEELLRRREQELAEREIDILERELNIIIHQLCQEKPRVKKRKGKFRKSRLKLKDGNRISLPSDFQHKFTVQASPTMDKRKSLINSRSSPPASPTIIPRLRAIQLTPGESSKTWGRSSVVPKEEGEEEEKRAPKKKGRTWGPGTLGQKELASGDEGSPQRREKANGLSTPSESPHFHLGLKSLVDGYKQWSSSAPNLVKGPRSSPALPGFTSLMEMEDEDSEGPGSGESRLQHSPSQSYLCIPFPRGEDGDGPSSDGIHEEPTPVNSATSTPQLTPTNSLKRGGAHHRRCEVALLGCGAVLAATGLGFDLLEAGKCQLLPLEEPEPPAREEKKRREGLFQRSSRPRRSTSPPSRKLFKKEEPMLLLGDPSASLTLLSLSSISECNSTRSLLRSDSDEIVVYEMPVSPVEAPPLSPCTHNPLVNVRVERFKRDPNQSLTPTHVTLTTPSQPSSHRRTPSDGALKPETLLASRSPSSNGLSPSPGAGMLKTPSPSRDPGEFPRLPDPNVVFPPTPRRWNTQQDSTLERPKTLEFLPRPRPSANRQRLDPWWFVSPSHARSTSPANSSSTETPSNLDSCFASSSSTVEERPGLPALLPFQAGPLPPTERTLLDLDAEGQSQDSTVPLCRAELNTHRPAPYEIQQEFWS

[16] = biological target: Testis-specific serine/threonine-protein kinase 1 (Homo sapiens) (UniProt Q9BXA7); test: Inhibition of TSSK1 (unknown origin) assessed as residual enzyme activity at 50 uM by [33P]-ATP filter binding kinase assay relative to control
Testis-specific serine/threonine-protein kinase 1 (Homo sapiens), sequence (Q9BXA7 whole entry): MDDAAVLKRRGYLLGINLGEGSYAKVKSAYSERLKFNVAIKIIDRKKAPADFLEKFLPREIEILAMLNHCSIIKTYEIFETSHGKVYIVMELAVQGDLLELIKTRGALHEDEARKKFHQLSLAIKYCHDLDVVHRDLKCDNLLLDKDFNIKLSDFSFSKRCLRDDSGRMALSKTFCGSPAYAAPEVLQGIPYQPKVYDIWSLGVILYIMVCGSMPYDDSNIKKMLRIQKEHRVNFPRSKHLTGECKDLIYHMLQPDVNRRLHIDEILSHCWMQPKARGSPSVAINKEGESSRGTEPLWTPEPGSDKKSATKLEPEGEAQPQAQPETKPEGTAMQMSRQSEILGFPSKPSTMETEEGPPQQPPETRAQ

BMP-2-inducible protein kinase, sequence (Q9NSY1 whole entry, the tested form may be a part): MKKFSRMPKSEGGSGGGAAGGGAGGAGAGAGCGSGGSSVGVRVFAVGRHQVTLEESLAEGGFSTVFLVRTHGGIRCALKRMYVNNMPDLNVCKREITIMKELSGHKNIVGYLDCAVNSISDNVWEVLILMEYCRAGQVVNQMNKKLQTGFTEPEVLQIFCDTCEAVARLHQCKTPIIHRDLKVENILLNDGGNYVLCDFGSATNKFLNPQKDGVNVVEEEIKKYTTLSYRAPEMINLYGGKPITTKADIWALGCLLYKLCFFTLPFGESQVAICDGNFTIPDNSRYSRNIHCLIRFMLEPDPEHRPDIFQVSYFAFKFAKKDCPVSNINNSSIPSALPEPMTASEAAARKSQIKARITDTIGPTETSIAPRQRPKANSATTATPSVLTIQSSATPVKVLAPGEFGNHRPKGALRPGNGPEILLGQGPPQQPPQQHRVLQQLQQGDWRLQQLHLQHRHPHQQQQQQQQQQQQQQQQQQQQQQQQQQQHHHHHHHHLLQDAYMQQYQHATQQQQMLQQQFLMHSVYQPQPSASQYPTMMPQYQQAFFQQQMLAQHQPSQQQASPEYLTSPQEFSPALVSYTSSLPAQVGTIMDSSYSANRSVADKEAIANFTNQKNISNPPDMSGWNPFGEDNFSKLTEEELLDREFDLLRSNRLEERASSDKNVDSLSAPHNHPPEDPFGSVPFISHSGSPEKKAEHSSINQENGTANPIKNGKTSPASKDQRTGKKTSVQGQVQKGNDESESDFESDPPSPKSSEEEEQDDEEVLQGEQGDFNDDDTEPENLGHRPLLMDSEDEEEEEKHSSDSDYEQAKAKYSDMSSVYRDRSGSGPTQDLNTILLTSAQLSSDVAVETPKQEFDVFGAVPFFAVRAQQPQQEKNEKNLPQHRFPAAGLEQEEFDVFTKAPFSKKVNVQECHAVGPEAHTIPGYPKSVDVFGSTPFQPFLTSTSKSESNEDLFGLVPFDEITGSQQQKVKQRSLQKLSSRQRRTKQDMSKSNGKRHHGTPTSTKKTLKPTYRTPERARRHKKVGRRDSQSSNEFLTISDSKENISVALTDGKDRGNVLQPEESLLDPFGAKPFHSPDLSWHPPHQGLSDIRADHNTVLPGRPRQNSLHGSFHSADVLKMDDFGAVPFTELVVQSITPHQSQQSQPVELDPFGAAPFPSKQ

SMILES: COc1cc2c(-c3cnc(-c4ccc[nH]4)o3)c[nH]c2cc1Br
- Kd [1]: 1100 nM
- Activity [2]: 100%
- Activity [3]: 75%
- Activity [4]: 0%
- Activity [5]: 100%
- Activity [6]: 80%
- Activity (Aurora kinase B): 6%
- Activity [7]: 89%
- Activity [8]: 0%
- Activity [9]: 35%
- Activity [10]: 0%
- Activity [11]: 6%
- microsomal CLint at 3 µM [12]: 14 µL/min/mg
- Activity [13]: 67%
- Activity (HT-29): Tde
- IC50 (A673): 2200 nM
- Activity [14]: 31%

SMILES: COc1cc(Br)cc2[nH]cc(-c3cnc(-c4ccc[nH]4)o3)c12
- Activity [15]: 7%

SMILES: COc1cc(Br)cc2[nH]cc(-c3oc(-c4ccc[nH]4)nc3I)c12
- Activity [16]: 21%
